Experimental data taken from PMC10044120, “Potent and selective covalent inhibition of the papain-like protease from SARS-CoV-2” (Nature Communications, 2023).
Where “and” joins values, the source holds several entries; their conditions need not be identical. Equal values may be shown once. Read-outs that look alike come from different tables or passages of the source.

Key:
[1] = system: SARS-CoV-2 isolate USA-WA1/2020; conditions: for inhibition: read-out: cytopathic effect, % cell viability, duplicate wells
[2] = system: SARS-CoV-2 isolate USA-WA1/2020; assay: microbe, parasite or virus in culture; conditions: for inhibition at 2.08 µM: Severe acute respiratory syndrome coronavirus 2, Vero C1008, read-out: cytopathic effect, % cell viability, [inhibitor] 2.08 uM; for inhibition at […]: Severe acute respiratory syndrome coronavirus 2, Vero C1008, read-out: cytopathic effect, % cell viability
PLpro from SARS-CoV-2 [3] = target: T1, PLpro from SARS-CoV-2 (Severe acute respiratory syndrome coronavirus 2, UniProt P0DTD1); assay: biochemical; type: biochemical; conditions: for remaining activity at 100 µM: inhibitor 100.00 uM; for remaining activity at […]: read-out: % Plpro activity; for IC50: after 30-min incubation; for remaining activity at 0.02 µM: inhibitor 0.02 uM; for remaining activity at 2.01 µM: inhibitor 2.01 uM; for remaining activity at 6.34 µM: inhibitor 6.34 uM
Vero E6 cells = conditions: African green monkey, 48 h
in vitro = conditions: African green monkey, cytotoxicity, %cell viability
PLpro from SARS-CoV-2 [4] = target: T1, PLpro from SARS-CoV-2; assay: biochemical; type: biochemical; conditions: fluorogenic peptide assay, varied preincubation time
PLpro = PLpro (Severe acute respiratory syndrome coronavirus 2, UniProt P0DTD1); assay: Intact protein ESI-MS to assess covalent adduct formation; type: binding, SARS-CoV-2; parameters: unit not given here
[5] = purified PLpro, Z-RLRGG-AMC substrate

Row | SMILES | inhibition ([1]; [inhibitor] 2.08 uM, 2.08 µM) | inhibition at 2.08 µM ([2]; duplicate wells) | remaining activity at 100 µM (PLpro from SARS-CoV-2 [3]; 0.5 h) | remaining activity at […] (PLpro from SARS-CoV-2 [3]; 0.5 h) | cytotoxicity, %cell viability (Vero E6 cells; 2.08 µM) | cytotoxicity, %cell viability (Vero E6 cells; 8.33 µM) | cytotoxicity, %cell viability (Vero E6 cells; 16.65 µM) | viability at 48 h, 2.08 µM (in vitro) | viability at 48 h, 8.33 µM (in vitro) | viability at 48 h, 16.65 µM (in vitro) | Time dep. (time-dependent inhibition) (PLpro from SARS-CoV-2 [4]) | inhibition at […] [2] | IC50 (PLpro from SARS-CoV-2 [3]; [5]) | remaining activity at 0.02 µM (PLpro from SARS-CoV-2 [3]; 0.5 h) | remaining activity at 2.01 µM (PLpro from SARS-CoV-2 [3]; 0.5 h) | remaining activity at 6.34 µM (PLpro from SARS-CoV-2 [3]; 0.5 h) | cytotoxicity, %cell viability (Vero E6 cells; 16.67 µM) | cytotoxicity, %cell viability (Vero E6 cells; 33.33 µM) | viability at 48 h, 16.67 µM (in vitro) | viability at 48 h, 33.33 µM (in vitro) | also measured
1 | COC(=O)CCc1ccccc1C(=O)N[C@H](C)c1cccc2ccccc12 [Compound 3, methyl (R)−3-(2-((1-(naphthalen-1-yl)ethyl)carbamoyl)phenyl)propanoate] | 8.63% | 7.81% | 78.6% | 119% and 108% | 99.61% | 97.36% | 90.64% | 105% | 93.2% | 92% | – | – | – | – | – | – | – | – | – | – | –
2 | C[C@@H](NC(=O)c1ccccc1CCC(=O)NN)c1cccc2ccccc12 [Compound 5, (R)-2-(3-hydrazineyl-3-oxopropyl)-N-(1-(naphthalen-1-yl)ethyl)benzamide] | 7.12% | 11.2% | 13.9% | 103% and 109% | 100.12% | 100.79% | 89.16% | 101% | 97% | 94.8% | No | 11.2% | 24 µM | – | – | – | – | – | – | – | inhibition ([1]; [inhibitor] 8.33 uM, 8.33 µM): 8.31%; inhibition ([1]; [inhibitor] 16.65 uM, 16.65 µM): 2.6%; inhibition at 8.33 µM ([2]; Severe acute respiratory syndrome coronavirus 2, Vero C1008, read-out: cytopathic effect, % cell viability, [inhibitor] 8.33 uM, duplicate wells): 8.24%; inhibition at 16.65 µM ([2]; Severe acute respiratory syndrome coronavirus 2, Vero C1008, read-out: cytopathic effect, % cell viability, [inhibitor] 16.65 uM, duplicate wells): 2.95%; remaining activity at 19.5 µM (PLpro from SARS-CoV-2 [3]; 0.5 h, inhibitor 19.50 uM): 46.4%
3 | CC(=O)Nc1ccc(CCC(=O)NNC(=O)CCl)c(C(=O)N[C@H](C)c2cccc3ccccc23)c1 [Compound 10, (R)-5-acetamido-2-(3-(2-(2-chloroacetyl)hydrazineyl)-3-oxopropyl)-N-(1-(naphthalen-1-yl)ethyl)benzamide] | 1.32% | 2.2% | – | – | 80.200% | 79.780% | – | 92.2% | 84.4% | – | – | – | – | 90.3% | 80.3% | 37.2% | 73.170% | 66.030% | 81.5% | 73.4% | remaining activity at 0.06 µM (PLpro from SARS-CoV-2 [3]; 0.5 h, inhibitor 0.06 uM): 102%; IC50 (PLpro from SARS-CoV-2 [3]; […]): 4.4 µM; Measured adduct mass (PLpro): 460
4 | C[C@@H](NC(=O)c1ccccc1CCC(=O)NNC(=O)CC#N)c1cccc2ccccc12 [Compound 11, (R)-2-(3-(2-(2-cyanoacetyl)hydrazineyl)-3-oxopropyl)-N-(1-(naphthalen-1-yl)ethyl)benzamide] | 4.7% | 8% | – | – | 98.90% | 91.20% | – | 101% | 94% | – | not and No | 9.7% | 8 µM | 84.4% | 71.3% | 46.4% | 87.90% | 80.50% | 88.6% | 80.8% | EC50 (cytopathic effect) ([1]; SARS-CoV-2-infected Vero E6 cells, 48 h): No CPE; remaining activity at 0.2 µM (PLpro from SARS-CoV-2 [3]; 0.5 h, inhibitor 0.20 uM): 89.9%; remaining activity at 20 µM (PLpro from SARS-CoV-2 [3]; 0.5 h, inhibitor 20.00 uM): 41.4%; remaining activity at 200 µM (PLpro from SARS-CoV-2 [3]; 0.5 h, inhibitor 200.00 uM): 5.83%
